ChEMBL document CHEMBL1201862, “PubChem BioAssay data set” (2004)
Active and inactive are the calls of the source.

Columns and labels:
[1] = cytotoxicity in HPDE-C7 cells, cell-based, fluorescence, HTS (AID 430); type: functional; details: Homo sapiens
[2] = cytotoxicity in KRAS-transformed pancreatic duct cells, primary screen, cell-based, fluorescence, HTS (AID 431); type: functional; details: Homo sapiens;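 also: cell line used: HPDE-C7K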
Aminopeptidase N = molecular target: T1, Aminopeptidase N (Plasmodium falciparum FcB1/Columbia, UniProt O96935); assay: P. falciparum M1AAP inhibitors, biochemical, fluorogenic H-Leu-NHMec substrate, 1536-well (AID 1445); set-up: species or system Plasmodium falciparum 3D7, 3D7
T1 sequence (O96935 whole entry): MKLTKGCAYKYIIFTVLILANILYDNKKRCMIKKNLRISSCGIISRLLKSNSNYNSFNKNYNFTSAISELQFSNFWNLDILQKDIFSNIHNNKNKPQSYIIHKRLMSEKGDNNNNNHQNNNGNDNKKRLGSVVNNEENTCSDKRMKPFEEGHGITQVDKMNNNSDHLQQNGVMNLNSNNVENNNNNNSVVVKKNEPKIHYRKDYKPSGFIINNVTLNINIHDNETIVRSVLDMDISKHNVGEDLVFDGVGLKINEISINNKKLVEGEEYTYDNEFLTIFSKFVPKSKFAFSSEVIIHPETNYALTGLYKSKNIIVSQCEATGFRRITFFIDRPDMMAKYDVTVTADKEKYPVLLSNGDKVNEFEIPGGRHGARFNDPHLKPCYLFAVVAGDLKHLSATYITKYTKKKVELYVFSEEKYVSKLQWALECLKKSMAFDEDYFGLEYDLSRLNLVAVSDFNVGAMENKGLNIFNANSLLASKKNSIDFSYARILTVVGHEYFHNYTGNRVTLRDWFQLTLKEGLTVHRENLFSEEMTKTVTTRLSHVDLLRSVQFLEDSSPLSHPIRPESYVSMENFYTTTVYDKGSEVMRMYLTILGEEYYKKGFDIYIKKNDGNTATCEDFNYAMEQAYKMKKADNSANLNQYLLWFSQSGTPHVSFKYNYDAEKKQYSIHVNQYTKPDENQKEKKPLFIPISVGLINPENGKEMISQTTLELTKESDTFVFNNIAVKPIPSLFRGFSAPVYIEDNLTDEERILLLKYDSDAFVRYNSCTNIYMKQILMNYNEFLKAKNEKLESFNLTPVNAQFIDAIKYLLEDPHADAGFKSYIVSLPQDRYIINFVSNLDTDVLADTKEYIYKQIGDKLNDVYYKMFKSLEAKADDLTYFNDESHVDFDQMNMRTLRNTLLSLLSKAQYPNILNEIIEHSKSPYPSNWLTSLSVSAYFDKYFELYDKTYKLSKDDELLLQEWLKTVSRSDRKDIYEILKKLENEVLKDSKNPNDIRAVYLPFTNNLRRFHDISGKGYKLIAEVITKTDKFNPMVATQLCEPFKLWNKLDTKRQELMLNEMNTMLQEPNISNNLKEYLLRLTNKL

Bcl-2-related protein A1 [3] = molecular target: T2, Bcl-2-related protein A1 (Mus musculus, UniProt Q07440); assay: Bfl-1 inhibitors blocking BH3 peptide binding, confirmation, biochemical, TR-FRET, mouse Bfl-1 (AID 621);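 also: TR-FRET binding of GST-Bfl-1 to FITC-labelled Bid peptide via terbium antibody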
T2 sequence (Q07440 whole entry): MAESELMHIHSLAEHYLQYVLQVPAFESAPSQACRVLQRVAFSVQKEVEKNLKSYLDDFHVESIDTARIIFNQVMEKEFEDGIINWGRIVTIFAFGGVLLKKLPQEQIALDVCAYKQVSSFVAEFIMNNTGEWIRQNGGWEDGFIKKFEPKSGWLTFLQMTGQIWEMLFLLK

[4] = molecular target: Glyceraldehyde-3-phosphate dehydrogenase (Homo sapiens, UniProt P04406)
Bcl-2-related protein A1 [5] = molecular target: T2, Bcl-2-related protein A1; assay: Bfl-1 binding inhibitors, SAR follow-up, biochemical, fluorescence polarization (AID 1070)
[6] = C. albicans growth with fluconazole, confirmation, fluorescence, retest (AID 2467); type: functional, cell-based
[7] = Luminescent dose response cell-based high throughput screening assay for inhibitors of the Janus kinase 2 mutant JAK2V617F. [Related pubchem assays: 1446 (Primary screen.), 1521 (Confirmation assay.), 1486 (Counter screen.)]; type: functional
Vero = assay: cells; type: functional; details: Chlorocebus sabaeus
[8] = NIH-3T3 fibroblast cytotoxicity, dose response, cytotoxicity control, cell-based, fluorescence, Alamar Blue, secondary assay (AID 2327); type: functional;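 also: NIH-3T3 mouse fibroblasts cultured with fluconazole at 8 µg/mL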
[9] = inhibitors of firefly luciferase expression or activity, dose response, H4 neuroglioma cells, luminescence (AID 1990); type: functional, cell-based
[10] = cytotoxicity toward NIH3T3 fibroblasts, dose response, counter-screen, cell-based, ATP luminescence, mouse fibroblasts (AID 2010); type: functional;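 also: cells exposed to compound for about 90 hours before reading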
[11] = inhibitors of SNCA 5'UTR-driven reporter translation, confirmation, H4 neuroglioma cells, luminescence (AID 1988); type: functional, cell-based
[12] = Luminescence Cell-Based Dose Response HTS to Identify Inhibitors of 5'UTR Stem-Loop Driven Prion Protein mRNA Translation in H4 Neuroglioblastoma Cells. [Related pubchem assays: 1827 (Project Summary), 1813 (Primary HTS)]; type: functional
[13] = inhibitors of intracellular T. cruzi replication, confirmation, NIH3T3 host cells, beta-gal luminescence (AID 2044); type: functional, cell-based;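 also: intracellular parasites grown in NIH/3T3 mouse fibroblasts as host cells; luminescent beta-galactosidase reporter signal from transgenic T. cruzi replicating inside host cells; inhibitors lower the luminescence signal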
[14] = microbe, parasite or virus in culture; type: functional; details: Mycobacterium tuberculosis
INS1 = assay: beta cell apoptosis inhibitors, cytokine rescue, dose response, luminescence, retest (AID 449756); type: functional, cell-based; details: Rattus norvegicus;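 also: cell death triggered by IL-1 beta plus TNF-alpha plus IFN-gamma mixture; protective hits raise ATP signal compared with cytokine alone wells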
[15] = molecular target: Protein-tyrosine kinase 2-beta (Homo sapiens, UniProt Q14289);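 also: potency of inhibitors of PYK2 kinase phosphorylation of poly-GT substrate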
[16] = molecular target: Heat shock protein HSP 90-alpha (Homo sapiens, UniProt P07900); type: functional, organism-based
[17] = A Cell Based Secondary Assay To Explore Cytotoxicity of Compounds that Sensitize Mycobacterium Tuberculosis to Beta-Lactam Antibiotics.; type: functional
Cytochrome P450 2D6 = Cytochrome P450 2D6 (Homo sapiens, UniProt P10635); assay: qHTS Assay for Inhibitors and Substrates of Cytochrome P450 2D6. [Related pubchem assays: 410 ]; type: ADME; details: read-out: Potency
Chain of Cytochrome P450 2D6 (P10635 whole entry): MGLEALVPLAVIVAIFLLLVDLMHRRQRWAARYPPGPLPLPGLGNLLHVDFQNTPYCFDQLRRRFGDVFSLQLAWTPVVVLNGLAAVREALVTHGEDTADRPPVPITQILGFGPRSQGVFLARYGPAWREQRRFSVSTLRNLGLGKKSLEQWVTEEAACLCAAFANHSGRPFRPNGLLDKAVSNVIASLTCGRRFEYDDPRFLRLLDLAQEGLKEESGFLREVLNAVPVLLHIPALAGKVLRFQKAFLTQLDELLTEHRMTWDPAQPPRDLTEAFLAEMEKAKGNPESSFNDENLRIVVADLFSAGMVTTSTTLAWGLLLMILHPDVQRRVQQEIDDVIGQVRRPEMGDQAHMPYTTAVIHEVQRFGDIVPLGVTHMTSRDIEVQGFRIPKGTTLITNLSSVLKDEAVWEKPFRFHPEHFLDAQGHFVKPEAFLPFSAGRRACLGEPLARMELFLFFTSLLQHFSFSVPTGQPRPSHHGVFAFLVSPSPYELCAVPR

Chain of Glyceraldehyde-3-phosphate dehydrogenase (P04406 whole entry): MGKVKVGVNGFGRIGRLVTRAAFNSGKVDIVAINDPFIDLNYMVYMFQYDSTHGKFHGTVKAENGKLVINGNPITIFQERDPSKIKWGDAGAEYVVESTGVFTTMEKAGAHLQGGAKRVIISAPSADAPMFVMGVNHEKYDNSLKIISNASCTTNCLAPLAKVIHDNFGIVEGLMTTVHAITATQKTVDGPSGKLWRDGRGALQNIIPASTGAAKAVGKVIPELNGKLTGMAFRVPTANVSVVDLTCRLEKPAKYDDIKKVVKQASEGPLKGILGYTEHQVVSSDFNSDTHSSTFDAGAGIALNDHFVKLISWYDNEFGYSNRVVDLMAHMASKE
Chain of Protein-tyrosine kinase 2-beta (Q14289 whole entry): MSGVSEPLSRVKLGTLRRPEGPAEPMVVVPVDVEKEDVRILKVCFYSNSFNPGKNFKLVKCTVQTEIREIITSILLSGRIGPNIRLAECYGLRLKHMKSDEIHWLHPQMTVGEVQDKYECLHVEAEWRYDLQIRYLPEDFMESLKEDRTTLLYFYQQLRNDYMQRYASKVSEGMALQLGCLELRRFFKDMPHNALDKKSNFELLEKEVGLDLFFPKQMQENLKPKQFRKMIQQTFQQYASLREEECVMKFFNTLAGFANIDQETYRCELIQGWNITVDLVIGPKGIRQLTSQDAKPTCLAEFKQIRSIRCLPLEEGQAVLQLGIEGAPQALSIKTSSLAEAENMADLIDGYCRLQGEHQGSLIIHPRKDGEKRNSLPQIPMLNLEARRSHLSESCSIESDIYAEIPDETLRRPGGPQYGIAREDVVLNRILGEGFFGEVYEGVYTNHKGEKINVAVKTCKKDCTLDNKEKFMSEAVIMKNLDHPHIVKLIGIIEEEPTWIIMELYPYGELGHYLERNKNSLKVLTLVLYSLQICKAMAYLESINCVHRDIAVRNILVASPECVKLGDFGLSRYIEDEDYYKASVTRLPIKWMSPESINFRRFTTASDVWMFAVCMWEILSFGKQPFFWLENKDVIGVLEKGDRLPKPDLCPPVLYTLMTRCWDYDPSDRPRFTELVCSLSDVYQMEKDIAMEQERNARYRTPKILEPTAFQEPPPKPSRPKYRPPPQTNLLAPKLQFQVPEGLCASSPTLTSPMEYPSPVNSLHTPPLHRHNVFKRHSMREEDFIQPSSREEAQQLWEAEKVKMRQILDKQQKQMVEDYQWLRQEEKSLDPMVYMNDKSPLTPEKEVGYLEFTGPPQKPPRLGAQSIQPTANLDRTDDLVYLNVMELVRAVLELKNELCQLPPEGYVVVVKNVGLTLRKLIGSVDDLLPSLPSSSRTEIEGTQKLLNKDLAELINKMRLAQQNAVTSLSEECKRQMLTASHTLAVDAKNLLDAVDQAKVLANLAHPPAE

COC(=O)c1ccc(O)c(Sc2cc(C(=O)OC)ccc2O)c1
EC50 [1]: 13.6 µM (active) | EC50 [2]: > 20 µM (not active) | IC50 (Aminopeptidase N): 33.1 µM (active)

CCOC(=O)CS(=O)(=O)c1nc2c(c(C(F)(F)F)n1)CCc1ccccc1-2
IC50 (Bcl-2-related protein A1 [3]): > 100 µM (not active) | IC50 [4]: > 100 µM (not active) | IC50 (Bcl-2-related protein A1 [5]): > 100 µM (not active)

Cc1cccc(NC(=O)c2ccc([N+](=O)[O-])o2)c1
EC50 [6]: 1.42 µM (active) | IC50 [7]: 1.18 µM (active) | CC50 (Vero): 10 µM (active) | EC50 [8]: 18 µM (active)

CC(C)c1ccc(-n2c(-c3ccccc3)c[n+]3c2CCc2ccccc2-3)cc1
EC50 [9]: 9.52 µM (active) | EC50 [10]: > 60 µM (not active) | EC50 [11]: 11.7 µM (active) | EC50 [12]: > 120 µM (not active) | EC50 (cells): 0.041 µM (active) | EC50 [13]: < 0.1 µM (active)

Fc1ccc(C[n+]2c(-c3ccccc3)cc(-c3ccccc3)cc2-c2ccccc2)cc1.[O-][Cl+3]([O-])([O-])[O-]
CC50 [14]: > 40 µM (active) | EC50 [9]: 11.2 µM (active) | EC50 [10]: > 60 µM (not active) | EC50 [11]: > 120 µM (not active) | EC50 [12]: 35.3 µM (active) | AC50 (INS1): 2.98 µM (active) | EC50 (cells): 0.053 µM (active) | EC50 [13]: < 0.1 µM (active)

CC(C)(C)C(=O)Nc1nc2c(s1)COc1ccccc1-2
IC50 [15]: > 69.5 µM (not active)

OCCOCCn1c(C2CCCN2c2nc(-c3ccc(F)cc3)cs2)nc2cc(Cl)c(Cl)cc21 (stereo not drawn)
AC50 [16]: 6.11 µM (active) | CC50 [17]: 37.6 µM (active)

CC(C)[C@@]1(NC(=O)[C@H]2C[C@H]3c4cccc5[nH]cc(c45)C[C@@H]3N(C)C2)O[C@]2(O)[C@H]3CCCN3C(=O)[C@H](Cc3ccccc3)N2C1=O
AC50 (Cytochrome P450 2D6): 31.6 µM (inconclusive)
